Data as given in PubChem BioAssay (NCI).
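96-well plates; 48 h exposure; 5 concentrations. Endpoints by linear interpolation between flanking doses. Not reached: highest tested concentration assigned. GI50 marks 50% less growth. At the TGI there is no net growth.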

What was measured:
Assay in all cases: growth of human tumour cells (NCI), 48 h
A549 NSCLC = test system: A549 NSCLC
HCC-2998 colon = test system: HCC-2998 colon
MCF7 breast = test system: MCF7 breast
MDA-N = test system: MDA-N
NCI/ADR-RES ovarian = test system: NCI/ADR-RES ovarian
OVCAR-3 ovarian = test system: OVCAR-3 ovarian
PC-3 prostate = test system: PC-3 prostate
SW-620 colon = test system: SW-620 colon
NCI-H226 lung = test system: NCI-H226 lung
MALME-3M melanoma = test system: MALME-3M melanoma

SMILES	TGI (A549 NSCLC)	TGI (HCC-2998 colon)	TGI (MCF7 breast)	TGI (MDA-N)	TGI (NCI/ADR-RES ovarian)	TGI (OVCAR-3 ovarian)	TGI (PC-3 prostate)	TGI (SW-620 colon)	TGI (NCI-H226 lung)	TGI (MALME-3M melanoma)	GI50 (A549 NSCLC)	GI50 (HCC-2998 colon)	GI50 (MCF7 breast)	GI50 (NCI-H226 lung)	GI50 (NCI/ADR-RES ovarian)	GI50 (OVCAR-3 ovarian)	GI50 (PC-3 prostate)	GI50 (SW-620 colon)
C=CCSC1=N/C(=C\c2ccc(Cl)cc2)C(=O)N1CC=C	> 100 µM	> 100 µM	46.2 µM	> 100 µM	> 100 µM	> 100 µM	54.2 µM	> 100 µM	–	–	–	–	–	–	–	–	–	–
O=C1[C@H](O)[C@@H]2C(O)O[C@H]3[C@@H]2N1C[C@H]3[Si](c1ccccc1)(c1ccccc1)c1ccccc1 (some centres undefined)	> 100 µM	> 100 µM	> 100 µM	–	> 100 µM	> 100 µM	> 100 µM	> 100 µM	> 100 µM	–	–	–	–	–	–	–	–	–
NC(=O)CNC(=O)[C@@H]1CC(OCCC(=O)O)CN1C(=O)C1CCCN1C(=O)OCc1ccccc1 (some centres undefined)	> 100 µM	–	> 100 µM	> 100 µM	> 100 µM	> 100 µM	> 100 µM	> 100 µM	> 100 µM	> 100 µM	–	–	–	–	–	–	–	–
COc1cc2c(c3c1c(=O)c1ccccc1n3C)C=CC1(CCCC1)O2	47.1 µM	37.7 µM	39.4 µM	29.3 µM	> 100 µM	38.1 µM	–	37.2 µM	37.1 µM	37.8 µM	–	–	–	–	–	–	–	–
O=S1(=O)c2ccccc2Oc2ccc(C(/C=N/O)=N/O)cc21	> 100 µM	–	92.5 µM	–	53.9 µM	36.6 µM	> 100 µM	–	> 100 µM	25.7 µM	–	–	–	–	–	–	–	–
C1=C(c2ccccc2)SC(N2CCCCC2)S1 (centres undefined)	–	–	–	–	–	> 100 µM	–	> 100 µM	> 100 µM	> 100 µM	–	–	–	–	–	–	–	–
CCn1nc(C)c2c1C(=O)NCC(=O)N2	> 100 µM	–	–	> 100 µM	–	> 100 µM	> 100 µM	> 100 µM	–	–	–	–	–	–	–	–	–	–
Nc1n(CC(=O)c2ccccc2)nc2sc(-c3ccccc3)n[n+]12	90.6 µM	25 µM	> 100 µM	–	> 100 µM	38.9 µM	78.8 µM	36.6 µM	52.2 µM	–	–	–	–	–	–	–	–	–
O=C1c2cccc([N+](=O)[O-])c2C(=O)N1Cc1ccccc1	> 100 µM	> 100 µM	> 100 µM	> 100 µM	> 100 µM	> 100 µM	> 100 µM	> 100 µM	> 100 µM	–	–	–	–	–	–	–	–	–
O=C(Nc1ccccc1)N(C1=NCC(CI)S1)c1ccc(F)c(F)c1 (centres undefined)	> 100 µM	> 100 µM	> 100 µM	96.3 µM	> 100 µM	> 100 µM	> 100 µM	> 100 µM	–	> 100 µM	–	–	–	–	–	–	–	–
O=c1[nH]/c(=C/c2ccc(OCc3ccccc3)cn2)c(=O)[nH]/c1=C/c1ccccc1	> 100 µM	0.521 µM	> 100 µM	–	0.229 µM	> 78.6 µM	> 100 µM	> 100 µM	–	–	–	–	–	–	–	–	–	–
Cn1c(=O)c2c(nc3n(CC(O)CCl)c(=O)ccn23)n(C)c1=O (centres undefined)	> 100 µM	> 100 µM	> 100 µM	> 100 µM	> 100 µM	> 100 µM	> 100 µM	> 100 µM	> 100 µM	–	–	–	–	–	–	–	–	–
CC(=O)Nc1ccc2c(C)c3c(nc2n1)[nH]c1ccccc13	> 100 µM	76.1 µM	> 100 µM	44 µM	62.1 µM	65.5 µM	> 100 µM	> 100 µM	67.9 µM	–	–	–	–	–	–	–	–	–
Cc1ccc(C)c(NC(=O)C(=O)C(C(=O)c2ccc3ccccc3c2)C2OC(=O)c3ccccc32)c1 (centres undefined)	45.7 µM	28.7 µM	–	–	–	–	–	29.4 µM	17.2 µM	–	–	–	–	–	–	–	–	–
O=C(O)CCc1nc2c(n1-c1ccccc1)C(=O)c1ccccc1C2=O	> 100 µM	> 100 µM	> 100 µM	> 100 µM	> 100 µM	> 100 µM	> 100 µM	> 100 µM	> 100 µM	–	–	–	–	–	–	–	–	–
NC(=O)Nc1c(Cl)cc(S(N)(=O)=O)cc1Cl	> 100 µM	–	> 100 µM	> 100 µM	> 100 µM	> 100 µM	–	> 100 µM	> 100 µM	> 100 µM	–	–	–	–	–	–	–	–
Cn1nc2ccc([N+](=O)[O-])c(Cn3nnc4ccccc43)c2n1	> 100 µM	> 100 µM	> 100 µM	> 100 µM	> 100 µM	> 100 µM	–	> 100 µM	> 100 µM	> 100 µM	–	–	–	–	–	–	–	–
CCN(CCCOc1ccccc1)CCN(CC)CCCOc1ccccc1	28.7 µM	48.4 µM	57.3 µM	–	46.8 µM	31.9 µM	5.14 µM	70.5 µM	46.8 µM	32 µM	–	–	–	–	–	–	–	–
CN1CCC(CNc2cc(C3(C(=O)Nc4cc(C(=O)Nc5ccc(Cl)c(C(F)(F)F)c5)ccc4F)CC3)ncn2)CC1	5.54 µM	5.22 µM	5.24 µM	–	36.6 µM	8.44 µM	3.3 µM	5.32 µM	36.1 µM	–	2.29 µM	2.39 µM	1.97 µM	13.6 µM	5.46 µM	2.57 µM	1.04 µM	2.54 µM
CC1=NNC(=O)C1C1C(=O)NN=C(c2c[nH]c3ccccc23)C1Br (centres undefined)	> 100 µM	–	–	> 100 µM	> 100 µM	> 100 µM	> 100 µM	> 100 µM	> 100 µM	> 100 µM	–	–	–	–	–	–	–	–
O=C(Nc1ccc(N2C(=O)CSC2c2ccccc2O)cc1)c1ccc(N2C(=O)CSC2c2ccccc2O)cc1 (centres undefined)	> 100 µM	> 100 µM	> 100 µM	> 100 µM	> 100 µM	> 100 µM	> 100 µM	> 100 µM	–	> 100 µM	–	–	–	–	–	–	–	–
COc1cc2c(c(O)c1O)C(=O)C1CCC(=O)N1C2c1cccc2ccccc12 (centres undefined)	> 50 µM	–	> 50 µM	> 50 µM	> 50 µM	> 50 µM	> 50 µM	> 50 µM	> 50 µM	–	–	–	–	–	–	–	–	–
N=C1C(=N)c2ccccc2-c2ccccc21.[Cl-].[Ru+2].c1ccc(-c2ccccn2)nc1.c1ccc(-c2ccccn2)nc1	> 100 µM	> 100 µM	–	–	–	> 100 µM	–	> 100 µM	–	> 100 µM	–	–	–	–	–	–	–	–
CCCCCOc1ccc(C=Nc2ccc(CCc3ccc(N=Cc4ccc(OCCCCC)cc4)cc3)cc2)cc1	> 100 µM	> 100 µM	> 100 µM	–	> 100 µM	> 100 µM	–	> 100 µM	> 100 µM	> 100 µM	–	–	–	–	–	–	–	–
